Reference: patent US20180353512A1, “COMBINATION THERAPIES FOR TREATING B-CELL MALIGNANCIES” (GILEAD SCIENCES, INC., priority 2015, published 2018)

Tests used:
Type in all cases: cell-based
[1] = tested on: OCI-LY10 cells; assay: Apoptosis assay, Annexin V flow cytometry; conditions: 48 h, Idelalisib = 156 nM, Compound B = 8 nM, DMSO 29
Procedure: (§1) Apoptosis of Idelalisib in combination with Compound B in two DLBCL cell lines, OCI-Ly10 and TMD-8, was also measured. Cells plated at 0.2×10^6 cells/mL in RPMI 1640 supplemented with 20% […] and 1% penicillin and streptomycin. Cells were treated with compound, 156 nM Idelalisib, Compound B and the combination thereof. Control received DMSO at 0.2%. Cells were then incubated at 37 C for 48 hours. Apoptosis was measured using Annexin V/FITC kit, and analyzed by flow cytometry. Apoptosis was also measured using or Annexin V/7ADD kit (Beckman Coulter). Fluorescence was measured by flow cytometry using BD LSRII and the results were analyzed using FACSDiva.

[2] = tested on: TMD-8 cells; assay: Apoptosis assay, Annexin V flow cytometry; conditions: 48 h, Idelalisib = 156 nM, Compound B = 8 nM, DMSO 21
Procedure: as §1

[3] = tested on: SU-DHL-6 cells; assay: ATPLite anti-proliferation assay (GI) and synergy score, 120 h
Procedure: (§2) The endpoint readout of the anti-proliferation assay was based upon quantitation of ATP as an indicator of viable cells. Cells were thawed from a liquid nitrogen preserved state. Once cells had been expanded and divided at their expected doubling times, screening began. Cells were seeded in growth media in black 384-well tissue culture treated plates at 500 cells per well (except where noted in Analyzer). Cells were equilibrated in assay plates via centrifugation and placed in incubators attached to the Dosing Modules at 37° C. for twenty-four hours before treatment. […] These Tzero (T0) plates were read using ultra-sensitive luminescence on Envision Plate Readers. Treated assay plates were incubated with the compound for one hundred twenty hours. After one hundred twenty hours, plates were developed for endpoint analysis using ATPLite. All data points were collected via automated processes; quality controlled; and analyzed using Horizon CombinatoRx proprietary software. Assay plates were accepted if they pass the following quality control standards: relative luciferase values were consistent throughout the entire experiment, Z-factor scores were greater than 0.6, untreated/vehicle controls behaved consistently on the plate.
(§3) Horizon Discovery utilized Growth Inhibition (GI) as a measure of cell viability. The cell viability of vehicle was measured at the time of dosing (T0) and after one hundred twenty hours (T120). A GI reading of 0% represented no growth inhibition—cells treated with compound and T120 vehicle signals were matched. […] A GI 200% represents complete death of all cells in the culture well. Compounds reaching an activity plateau of GI 200% were considered cytotoxic. Horizon CombinatoRx calculates GI by applying the following test and equation: […]
(§4) To measure combination effects in excess of Loewe additivity, Horizon Discovery has devised a scalar measure to characterize the strength of synergistic interaction termed the Synergy Score. The Synergy Score was calculated as:
(§5) Synergy Score=log fx log fyΣmax(0,Idata)(Idata−ILoewe)
(§6) The fractional inhibition for each component agent and combination point in the matrix was calculated relative to the median of all vehicle-treated control wells. The Synergy Score equation integrated the experimentally-observed activity volume at each point in the matrix in excess of a model surface numerically derived from the activity of the component agents using the Loewe model for additivity. Additional terms in the Synergy Score equation (above) were used to normalize for various dilution factors used for individual agents and to allow for comparison of synergy scores across an entire experiment. The inclusion of positive inhibition gating or an Idata multiplier removed noise near the zero effect level, and biased results for synergistic interactions at that occur at high activity levels.
(§7) The cell viability of vehicle was measured at the time of dosing (T0) and after 120 h (T120). […] To measure combination effects, excess of Loewe additivity was used to characterize the strength of synergistic interaction, termed the synergy score. The assay and synergy score analysis were performed in accordance with the protocol set forth in Example 1B above.
(§8) The assay and synergy score analysis were performed in accordance with the protocol set forth in Example 3A above.

[4] = tested on: SU-DHL-10 cells; assay: as above
Procedure: as §2, §3, §4, §5, §6, §7, §8

[5] = tested on: U2932 cells; assay: as above
Procedure: as §2, §3, §4, §5, §6, §7, §8

[6] = tested on: Ri-1 cells; assay: as above
Procedure: as §2, §3, §4, §5, §6, §7, §8

[7] = tested on: OCI-Ly4 cells; assay: as above
Procedure: as §2, §3, §4, §5, §6, §7, §8

[8] = tested on: HBL-1 cells; assay: as above
Procedure: as §2, §3, §4, §5, §6, §7, §8

[9] = tested on: U2973 cells; assay: as above
Procedure: as §2, §3, §4, §5, §6, §7, §8

[10] = tested on: Carnaval cells; assay: as above
Procedure: as §2, §3, §4, §5, §6, §7, §8

[11] = tested on: TMD-8 cells; assay: as above
Procedure: as §2, §3, §4, §5, §6, §7, §8

[12] = tested on: SU-DHL-2 cells; assay: as above
Procedure: as §2, §3, §4, §5, §6, §7, §8

[13] = tested on: OCI-Ly3 cells; assay: as above
Procedure: as §2, §3, §4, §5, §6, §7, §8

[14] = tested on: pERK T202/Y204; assay: Western Blot of TMD-8 Ibrutinib resistant lines; conditions: idelalisib 420 nM, Compound B 320 nM
Procedure: Western Blot samples were prepared by lysing 10^6 cells for 30 minutes in 150 μL ice-cold lysis buffer. Protease Inhibitor Cocktail (Roche Diagnostics Corp), and phosphatase inhibitor sets 1 and 2 (EMD Millipore) were also added to the lysis buffer (Cell Signaling Technology). Cells were centrifuged at 12.5 g for 10 minutes at 4° C.; supernatant was collected and transferred to new tube. Sample buffer was added to each lysate, and then boiled at 99° C. for 5 minutes. Protein was loaded into an SDS-PAGE gel and run for 2 h at 125V. After electrophoresis, gel was transferred to Immobilon-F membrane using the X Cell Blot. The membrane was then blocked for 1 h at room temperature in blocking buffer and incubated overnight with primary antibodies diluted in a blocking buffer. The following day, the membranes were washed 3× (5 min each) with TBST; secondary antibodies were added and membrane was incubated for 45 minutes at room temperature, followed by 3×TBST (5 min each). Blots were read using Licor Imager. Primary antibodies included p-AKT (S473), p-BTK (Y223), BTK, p-ERK (T202/Y204), ERK, and actin (Cell Signaling Technologies), and secondary antibodies included IRDye-conjugated anti-mouse and anti-rabbit antibodies; LI-COR. Band intensity was measured using LI-COR imager and LI-COR Odyssey software.
Total protein expression levels and phosphorylation of PI3K, MAPK, BTK and NF-κB components were determined by Western Blot or Peggy Sue. Cells were treated with idelalisib (420 nM), Compound B (320 nM) or in combination. Protein expression level and phosphoproteomics were determined using Western Blot (p-ERK 1/2, p-AKT S473, total AKT) and Peggy Sue (p-BTK, p-IκBα S32, total IκBα), using procedures as described in Example 3B. Results were quantitated after determining the AUC for each group and normalized to DMSO vehicle control.

[15] = A20-Q143* line, normalized to DMSO control, DMSO 0.91
[16] = control line, normalized to DMSO vehicle control

## CC#CC(=O)N1CC[C@@H](n2c(=O)n(-c3ccc(Oc4ccccc4)cc3)c3c(N)ncnc32)C1 [Compound B, 6-amino-9-[(3R)-1-(2-butynoyl)-3-pyrrolidinyl]-7-(4-phenoxyphenyl)-7,9-dihydro-8H-purin-8-one]
[1]
  % Annexin V+: 26%
[2]
  % Annexin V+: 44%
[3]
  Max. Effect (% GI): 24 % GI
[4]
  Max. Effect (% GI): 0 % GI
[5]
  Max. Effect (% GI): 81 % GI
[6]
  Max. Effect (% GI): 48 % GI
[7]
  Max. Effect (% GI): 25 % GI
[8]
  Max. Effect (% GI): 65 % GI
[9]
  Max. Effect (% GI): 14 % GI
[10]
  Max. Effect (% GI): 0 % GI
[11]
  Max. Effect (% GI): 98 % GI
[12]
  Max. Effect (% GI): 18 % GI
[13]
  Max. Effect (% GI): 0 % GI
[14]; [15]
  pERK T202/Y204: 0.76
[14]; [16]
  pERK T202/Y204: 0.35

## CCC(Nc1ncnc2[nH]cnc12)c1nc2cccc(F)c2c(=O)n1-c1ccccc1 (stereo not drawn) [Idelalisib, 2-(1-((9H-Purin-6-yl)amino)propyl)-5-fluoro-3-phenylquinazolin-4(3H)-one]
[1]
  % Annexin V+: 25%
[2]
  % Annexin V+: 45%
[3]
  Max. Effect (% GI): 110 % GI
[4]
  Max. Effect (% GI): 0 % GI
[5]
  Max. Effect (% GI): 61 % GI
[6]
  Max. Effect (% GI): 78 % GI
[7]
  Max. Effect (% GI): 194 % GI
[8]
  Max. Effect (% GI): 29 % GI
[9]
  Max. Effect (% GI): 85 % GI
[10]
  Max. Effect (% GI): 62 % GI
[11]
  Max. Effect (% GI): 155 % GI
[12]
  Max. Effect (% GI): 8 % GI
[13]
  Max. Effect (% GI): 20 % GI
[14]; [15]
  pERK T202/Y204: 0.73
[14]; [16]
  pERK T202/Y204: 0.13
